Measurements as given in patent US20200207759A1, “NEW PROPANAMINE DERIVATIVES FOR TREATING PAIN AND PAIN RELATED CONDITIONS” (ESTEVE PHARMACEUTICALS, S.A., priority 2017, published 2020).

What was measured:
[1] = molecular target: Human α2δ-1 subunit of Cav2.2 calcium channel (Homo sapiens, UniProt P54289); test: Binding assay to human α2δ-1 subunit of Cav2.2 calcium channel, [3H]-Gabapentin; conditions: human α2δ-1 enriched membranes, 15 nM [3H]-Gabapentin; read-out: Ki (nM) alpha2delta Hum
Description: Binding Assay to Human α2δ-1 Subunit of Cav2.2 Calcium Channel.
Human α2δ-1 enriched membranes (2.5 μg) were incubated with 15 nM of radiolabeled [3H]-Gabapentin in assay buffer containing Hepes-KOH 10 mM, pH 7.4.
(§1) NSB (non specific binding) was measured by adding 10 μM pregabalin. After 60 min incubation at 27° C., binding reaction was terminated by filtering through Multiscreen GF/C (Millipore) presoaked in 0.5% polyethyleneimine in Vacuum Manifold Station, followed by 3 washes with ice-cold filtration buffer containing 50 mM Tris-HCl, pH 7.4.
Filter plates were dried at 60° C. for 1 hour and 30 μl of scintillation cocktail were added to each well before radioactivity reading.
Readings were performed in a Trilux 1450 Microbeta radioactive counter (Perkin Elmer).

[2] = molecular target: Human norepinephrine transporter (NET) (Homo sapiens, UniProt P23975); test: Binding assay to human norepinephrine transporter (NET), [3H]-Nisoxetin; conditions: human NET enriched membranes, 5 nM [3H]-Nisoxetin; read-out: Ki (nM) NET Hum
Description: Binding Assay to Human Norepinephrine Transporter (NET).
Human norepinephrine transporter (NET) enriched membranes (5 μg) were incubated with 5 nM of radiolabeled [3H]-Nisoxetin in assay buffer containing 50 mM Tris-HCl, 120 mM NaCl, 5 mM KCl, pH 7.4.
as §1, with “1 μM.” for “10 μM pregabalin.”, “4°” for “27°”, “Tris-HCl, 0.9% NaCl,” for “Tris-HCl,”, “7.4. Filter plates were dried at 60° C. for 1 hour and 30 μl of scintillation cocktail were added to each well before radioactivity reading.” for “7.4.”

Sequence of Human α2δ-1 subunit of Cav2.2 calcium channel (P54289 25-1103): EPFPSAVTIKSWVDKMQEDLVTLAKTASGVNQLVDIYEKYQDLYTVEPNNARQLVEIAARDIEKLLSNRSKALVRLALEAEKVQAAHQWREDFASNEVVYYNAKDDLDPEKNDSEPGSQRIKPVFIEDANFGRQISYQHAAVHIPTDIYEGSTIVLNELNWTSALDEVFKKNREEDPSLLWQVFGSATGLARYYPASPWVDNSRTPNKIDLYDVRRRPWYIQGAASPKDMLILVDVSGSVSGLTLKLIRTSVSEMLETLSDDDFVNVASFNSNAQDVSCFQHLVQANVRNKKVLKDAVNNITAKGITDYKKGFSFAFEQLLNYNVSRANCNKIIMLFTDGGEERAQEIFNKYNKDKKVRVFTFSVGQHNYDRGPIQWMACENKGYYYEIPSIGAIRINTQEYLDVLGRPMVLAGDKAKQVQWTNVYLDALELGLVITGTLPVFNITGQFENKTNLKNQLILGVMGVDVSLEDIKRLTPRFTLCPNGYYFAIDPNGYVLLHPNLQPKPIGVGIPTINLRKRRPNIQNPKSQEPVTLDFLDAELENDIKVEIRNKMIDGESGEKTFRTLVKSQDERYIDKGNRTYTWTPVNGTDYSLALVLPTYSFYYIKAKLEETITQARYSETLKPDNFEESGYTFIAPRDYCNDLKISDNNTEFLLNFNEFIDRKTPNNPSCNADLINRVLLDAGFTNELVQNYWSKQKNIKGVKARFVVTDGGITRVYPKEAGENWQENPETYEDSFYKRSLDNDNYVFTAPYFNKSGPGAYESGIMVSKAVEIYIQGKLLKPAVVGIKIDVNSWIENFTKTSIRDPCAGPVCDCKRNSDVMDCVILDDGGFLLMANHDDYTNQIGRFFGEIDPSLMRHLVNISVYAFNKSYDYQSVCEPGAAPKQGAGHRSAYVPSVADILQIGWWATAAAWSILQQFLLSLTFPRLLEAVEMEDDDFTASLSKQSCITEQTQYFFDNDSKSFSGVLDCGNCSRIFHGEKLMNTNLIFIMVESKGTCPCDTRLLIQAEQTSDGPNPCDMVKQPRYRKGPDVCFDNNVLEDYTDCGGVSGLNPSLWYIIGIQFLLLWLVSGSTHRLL
Sequence of Human norepinephrine transporter (NET) (P23975 whole entry): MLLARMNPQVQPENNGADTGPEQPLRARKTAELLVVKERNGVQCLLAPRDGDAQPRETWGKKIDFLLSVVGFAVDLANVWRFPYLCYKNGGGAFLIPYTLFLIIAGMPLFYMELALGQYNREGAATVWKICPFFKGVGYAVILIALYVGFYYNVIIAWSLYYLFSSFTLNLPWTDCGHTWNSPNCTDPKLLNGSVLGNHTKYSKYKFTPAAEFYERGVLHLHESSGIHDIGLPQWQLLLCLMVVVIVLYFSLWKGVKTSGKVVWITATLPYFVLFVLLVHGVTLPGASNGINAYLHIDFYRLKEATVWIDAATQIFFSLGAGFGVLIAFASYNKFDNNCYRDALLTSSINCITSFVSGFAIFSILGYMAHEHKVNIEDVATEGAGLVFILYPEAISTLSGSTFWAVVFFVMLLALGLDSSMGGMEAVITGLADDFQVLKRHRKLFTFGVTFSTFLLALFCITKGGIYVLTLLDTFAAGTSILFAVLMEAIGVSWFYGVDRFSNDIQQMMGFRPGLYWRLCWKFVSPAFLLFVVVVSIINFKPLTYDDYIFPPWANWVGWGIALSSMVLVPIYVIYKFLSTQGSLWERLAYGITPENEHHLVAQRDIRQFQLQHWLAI

Compound | Ki [1] [nM] | Ki [2] [nM]
CNCC[C@H](c1ccsc1)N1CCc2ncc(C3CC3)cc21 [Example 52, (R)-3-(6-Cyclopropyl-2,3-dihydro-1H-pyrrolo[3,2-b]pyridin-1-yl)-N-methyl-3-(thiophen-3-yl)propan-1-amine] | < 100 | 500 to 1000
CNCC[C@@H](c1ccsc1)N1CCc2ncc(C3CC3)cc21 [Example 53, (S)-3-(6-Cyclopropyl-2,3-dihydro-1H-pyrrolo[3,2-b]pyridin-1-yl)-N-methyl-3-(thiophen-3-yl)propan-1-amine] | 500 to 3000 | > 1000
CNCC[C@H](c1nccs1)N1CCc2ncccc21 [Example 54, (R)-3-(2,3-Dihydro-1H-pyrrolo[3,2-b]pyridin-1-yl)-N-methyl-3-(thiazol-2-yl)propan-1-amine] | ≥ 3000 | > 1000
CNCC[C@@H](c1nccs1)N1CCc2ncccc21 [Example 55, (S)-3-(2,3-Dihydro-1H-pyrrolo[3,2-b]pyridin-1-yl)-N-methyl-3-(thiazol-2-yl)propan-1-amine] | ≥ 3000 | > 1000
CNCC[C@H](c1cc(C)cs1)N1CCc2ncccc21 [Example 56, (R)-3-(2,3-Dihydro-1H-pyrrolo[3,2-b]pyridin-1-yl)-N-methyl-3-(4-methylthiophen-2-yl)propan-1-amine] | 500 to 3000 | > 1000
CNCC[C@@H](c1cc(C)cs1)N1CCc2ncccc21 [Example 57, (S)-3-(2,3-Dihydro-1H-pyrrolo[3,2-b]pyridin-1-yl)-N-methyl-3-(4-methylthiophen-2-yl)propan-1-amine] | 500 to 3000 | > 1000
CNCC[C@H](c1ccsc1)N1CC(C)(C)c2nc(C)ccc21 [Example 58, (R)-N-methyl-3-(thiophen-3-yl)-3-(3,3,5-trimethyl-2,3-dihydro-1H-pyrrolo[3,2-b]pyridin-1-yl)propan-1-amine] | 100 to 500 | > 1000
CNCC[C@@H](c1ccsc1)N1CC(C)(C)c2nc(C)ccc21 [Example 59, (S)-N-methyl-3-(thiophen-3-yl)-3-(3,3,5-trimethyl-2,3-dihydro-1H-pyrrolo[3,2-b]pyridin-1-yl)propan-1-amine] | 100 to 500 | 100 to 500
CNCC[C@H](c1ccsc1)N1CC(C)(C)c2ncc(C)cc21 [Example 60, (R)-N-methyl-3-(thiophen-3-yl)-3-(3,3,6-trimethyl-2,3-dihydro-1H-pyrrolo[3,2-b]pyridin-1-yl)propan-1-amine] | 100 to 500 | > 1000
CNCC[C@@H](c1ccsc1)N1CC(C)(C)c2ncc(C)cc21 [Example 61, (S)-N-methyl-3-(thiophen-3-yl)-3-(3,3,6-trimethyl-2,3-dihydro-1H-pyrrolo[3,2-b]pyridin-1-yl)propan-1-amine] | 500 to 3000 | > 1000
CNCC[C@H](c1ccsc1)N1CCc2nc(C)ccc21 [Example 62, (R)—N-methyl-3-(5-methyl-2,3-dihydro-1H-pyrrolo[3,2-b]pyridin-1-yl)-3-(thiophen-3-yl)propan-1-amine] | 500 to 3000 | > 1000
CNCC[C@@H](c1ccsc1)N1CCc2nc(C)ccc21 [Example 63, (S)—N-methyl-3-(5-methyl-2,3-dihydro-1H-pyrrolo[3,2-b]pyridin-1-yl)-3-(thiophen-3-yl)propan-1-amine] | 500 to 3000 | 500 to 1000
CNCCC(c1cccs1)N1CC(C)(C)c2nc(C)ccc21 (stereo not shown) [Example 64, N-methyl-3-(thiophen-2-yl)-3-(3,3,5-trimethyl-2,3-dihydro-1H-pyrrolo[3,2-b]pyridin-1-yl)propan-1-amine] | < 100 | 100 to 500
CNCCC(c1ccsc1)N1CC(C)(C)c2ncc(F)cc21 (stereo not shown) [Example 65, 3-(6-Fluoro-3,3-dimethyl-2,3-dihydro-1H-pyrrolo[3,2-b]pyridin-1-yl)-N-methyl-3-(thiophen-3-yl)propan-1-amine] | < 100 | > 1000
CNCCC(c1cccs1)N1CC(C)(C)c2ncc(F)cc21 (stereo not shown) [Example 66, 3-(6-Fluoro-3,3-dimethyl-2,3-dihydro-1H-pyrrolo[3,2-b]pyridin-1-yl)-N-methyl-3-(thiophen-2-yl)propan-1-amine] | 100 to 500 | > 1000
CNCCC(c1cccs1)N1CCc2c(F)cccc21 (stereo not shown) [Example 67, 3-(4-Fluoroindolin-1-yl)-N-methyl-3-(thiophen-2-yl)propan-1-amine] | 500 to 3000 | < 100

Compound | Ki [1] [nM] | Ki [2] [nM]
CNCCC(c1cccs1)N1CCc2c(F)cc(F)cc21 (stereo not shown) [Example 68, 3-(4,6-Difluoroindolin-1-yl)-N-methyl-3-(thiophen-2-yl)propan-1-amine] | 500 to 3000 | < 100
CNCCC(c1cccs1)N1CCc2c(OC)cccc21 (stereo not shown) [Example 69, 3-(4-Methoxyindolin-1-yl)-N-methyl-3-(thiophen-2-yl)propan-1-amine] | ≥ 3000 | < 100
CNCCC(c1ccsc1)N1CC(C)(C)c2nc(C)c(F)cc21 (stereo not shown) [Example 71, 3-(6-Fluoro-3,3,5-trimethyl-2,3-dihydro-1H-pyrrolo[3,2-b]pyridin-1-yl)-N-methyl-3-(thiophen-3-yl)propan-1-amine] | < 100 | 100 to 500
CNCCC(c1cccs1)N1CCc2cc(F)ccc21 (stereo not shown) [Example 72, 3-(5-Fluoroindolin-1-yl)-N-methyl-3-(thiophen-2-yl)propan-1-amine] | ≥ 3000 | 100 to 500
CNCCC(c1cccs1)N1CC(C)(C)c2ncc(Cl)cc21 (stereo not shown) [Example 73, 3-(6-Chloro-3,3-dimethyl-2,3-dihydro-1H-pyrrolo[3,2-b]pyridin-1-yl)-N-methyl-3-(thiophen-2-yl)propan-1-amine] | 100 to 500 | > 1000
CNCCC(c1ccsc1)N1CCc2cnccc21 (stereo not shown) [Example 74, 3-(2,3-Dihydro-1H-pyrrolo[3,2-c]pyridin-1-yl)-N-methyl-3-(thiophen-3-yl)propan-1-amine] | 500 to 3000 | > 1000
CNCCC(c1cccs1)N1CC(C)(C)c2nc(C(F)(F)F)ccc21 (stereo not shown) [Example 75, 3-(3,3-Dimethyl-5-(trif1uoromethyl)-2,3-dihydro-1H-pyrrolo[3,2-b]pyridin-1-yl)-N-methyl-3-(thiophen-2-yl)propan-1-amine] | 100 to 500 | > 1000
CCc1cnc2c(c1)N([C@H](CCNC)c1ccsc1)CC2 [Example 76, (R)-3-(6-Ethyl-2,3-dihydro-1H-pyrrolo[3,2-b]pyridin-1-yl)-N-methyl-3-(thiophen-3-yl)propan-1-amine] | 100 to 500 | 100 to 500
CCc1cnc2c(c1)N([C@@H](CCNC)c1ccsc1)CC2 [Example 77, (S)-3-(6-Ethyl-2,3-dihydro-1H-pyrrolo[3,2-b]pyridin-1-yl)-N-methyl-3-(thiophen-3-yl)propan-1-amine] | 500 to 3000 | 100 to 500
CNCC[C@@H](c1cccc(F)c1)N1CCc2ncccc21 [Example 82, (S)-3-(2,3-Dihydro-1H-pyrrolo[3,2-b]pyridin-1-yl)-3-(3-fluorophenyl)-N-methylpropan-1-amine] | 500 to 3000 | 500 to 1000
CNCC[C@H](c1cccc(F)c1)N1CCc2ncccc21 [Example 83, (R)-3-(2,3-Dihydro-1H-pyrrolo[3,2-b]pyridin-1-yl)-3-(3-fluorophenyl)-N-methylpropan-1-amine] | ≥ 3000 | 100 to 500
CNCC[C@@H](c1cccc(F)c1)N1CC(C)(C)c2ncccc21 [Example 84, (S)-3-(3,3-Dimethyl-2,3-dihydro-1H-pyrrolo[3,2-b]pyridin-1-yl)-3-(3-fluorophenyl)-N-methylpropan-1-amine] | ≥ 3000 | 100 to 500
CNCC[C@H](c1cccc(F)c1)N1CC(C)(C)c2ncccc21 [Example 85, (R)-3-(3,3-Dimethyl-2,3-dihydro-1H-pyrrolo[3,2-b]pyridin-1-yl)-3-(3-fluorophenyl)-N-methylpropan-1-amine] | ≥ 3000 | > 1000
CNCC[C@H](c1ccsc1)N1CC(C)(C)c2ncc(F)cc21 [Example 87, (R)-3-(6-Fluoro-3,3-dimethyl-2,3-dihydro-1H-pyrrolo[3,2-b]pyridin-1-yl)-N-methyl-3-(thiophen-3-yl)propan-1-amine] | 100 to 500 | > 1000
CNCC[C@@H](c1ccsc1)N1CC(C)(C)c2ncc(F)cc21 [Example 88, (S)-3-(6-Fluoro-3,3-dimethyl-2,3-dihydro-1H-pyrrolo[3,2-b]pyridin-1-yl)-N-methyl-3-(thiophen-3-yl)propan-1-amine] | 100 to 500 | 500 to 1000
CNCC[C@@H](c1ccsc1)N1CC(C)(C)c2nc(C)c(F)cc21 [Example 89, (S)-3-(6-Fluoro-3,3,5-trimethyl-2,3-dihydro-1H-pyrrolo[3,2-b]pyridin-1-yl)-N-methyl-3-(thiophen-3-yl)propan-1-amine] | 100 to 500 | 100 to 500
